Results from patent US10899756B2, “Phosphodiesterase inhibitors and uses thereof” (The Trustees of Columbia University in the City of New York, priority 2013, dated 2021).

Each compound was assayed against PDE5 (Homo sapiens (Human), UniProt O76074) (assay: PDE5 Inhibition Assay (BPS PDE assay kit, fluorescence polarization)).
Format: biochemical
Experimental: Materials and Methods: PDE5 inhibition was assayed at BPS Bioscience (San Diego, Calif.) using BPS PDE assay kits (BPS Catalog number 60300, enzyme lot 090810). Test compounds were supplied as liquid solutions of 10 mM concentration in DMSO. Sildenafil, used as a standard was dissolved in DMSO. Intermediate dilutions were 10% DMSO in PDE assay buffer and tests at ranges from 0.1 to 100 nM. 0.1 ng of enzyme was used per reaction, and the substrate was 100 nM FAM-cGMP.
Assay conditions: A series of dilutions of the test compounds were prepared with 10% DMSO in assay buffer and 5 μl of the dilution was added to a 50 μl reaction so that the final concentration of DMSO is 1% in all of reactions. The enzymatic reactions were conducted at room temperature for 60 minutes in a 50 μl mixture containing PDE assay buffer, 100 nM FAM-cAMP or 100 nM FAM-cGMP, a PDE enzyme, and the test compound. After the enzymatic reaction, 100 μl of a binding solution (1:100 dilution of the binding agent with the binding agent diluent) was added to each reaction and the reaction was performed at room temperature for 60 minutes. Fluorescence intensity was measured at an excitation of 485 nm and an emission of 528 nm using a Tecan Infinite M1000 microplate reader.
Data analysis: PDE activity assays were performed in duplicate at each concentration.
Fluorescence intensity is converted to fluorescence polarization using the Tecan Magellan6 software. The fluorescence polarization data were analyzed using the computer software, Graphpad Prism. The fluorescence polarization (FPt) in absence of the compound in each data set was defined as 100% activity. In the absence of PDE and the compound, the value of fluorescent polarization (FPb) in each data set was defined as 0% activity. The percent activity in the presence of the compound was calculated according to the following equation: % activity=(FP−FPb)/(FPt−FPb)×100%, where FP=the fluorescence polarization in the presence of the compound.
The values of % activity versus a series of compound concentrations were then plotted using non-linear regression analysis of Sigmoidal dose-response curve generated with the equation Y=B+(T−B)/1+10^((LogEC50−X)×Hill Slope), where Y=percent activity, B=minimum percent activity, T=maximum percent activity, X=logarithm of compound and Hill Slope=slope factor or Hill coefficient. The IC50 value was determined by the concentration causing a half-maximal percent activity.

IC50	SMILES
0.059 nM	CCN1Cc2nc3ccc(C#N)cc3c(NCc3ccc(OC)c(Cl)c3)c2C1=O [K, 9-[(3-chloro-4-methoxybenzyl)amino]-2-ethyl-1-oxo-2,3-dihydro-1H-pyrrolo[3,4-b]quinoline-7-carbonitrile]
0.29 nM	CCN1Cc2nc3ccc(C(F)(F)F)cc3c(NCc3ccc(OC)c(Cl)c3)c2C1=O [M, 9-[(3-chloro-4-methoxybenzyl)amino]-2-ethyl-7-(trifluoromethyl)-2,3-dihydro-1H-pyrrolo[3,4-b]quinolin-1-one]
1 nM	COc1ccc(CNc2c3c(nc4ccc(C#N)cc24)CCN(C)C3)cc1Cl [B, 10-[(3-chloro-4-methoxybenzyl)amino]-2-methyl-1,2,3,4-tetrahydrobenzo[b][1,6]naphthyridine-8-carbonitrile]
3.8 nM	CCN1Cc2nc3ccc(OC)cc3c(NCc3ccc(OC)c(Cl)c3)c2C1=O [L, 9-((3-chloro-4-methoxybenzyl)amino)-2-ethyl-7-methoxy-2,3-dihydro-1H-pyrrolo[3,4-b]quinolin-1-one]
1.7 nM	CCN1Cc2nc3ccc(Cl)cc3c(NCc3ccc(OC)c(Cl)c3)c2C1=O [N, 7-chloro-9-[(3-chloro-4-methoxybenzyl)amino]-2-ethyl-2,3-dihydro-1H-pyrrolo[3,4-b]quinolin-1-one]
0.2 nM	CCN1CCc2nc3ccc(C#N)cc3c(NCc3ccc(OC)c(Cl)c3)c2C1 [C, 10-[(3-chloro-4-methoxybenzyl)amino]-2-ethyl-1,2,3,4-tetrahydrobenzo[b][1,6]naphthyridine-8-carbonitrile]
64 nM	CCN1Cc2nc3ccccc3c(NCc3ccc(OC)c(Cl)c3)c2C1=O [O, 9-[(3-chloro-4-methoxybenzyl)amino]-2-ethyl-2,3-dihydro-1H-pyrrolo[3,4-b]quinolin-1-one]
333 nM	COc1ccc(CNc2c3c(nc4ccccc24)CN(C(C)(C)C)C3=O)cc1Cl [Compound P, 2-(tert-butyl)-9-[(3-chloro-4-methoxybenzyl)amino]-2,3-dihydro-1H-pyrrolo[3,4-b]quinolin-1-one]
